The series in a line: Storage of the aqueous ophthalmic composition in polyethylene bottles: concentration of active ingredient over time. Type of series: physicochemical. The conditions noted are these: for concentration upon storage at low temperature / concentration upon storage at room temperature: polyethylene bottles; for concentration upon storage at low temperature: low (2-8° C.) temperature. How it is done: The ophthalmic products XALATAN® (comprising approximately 50 μg/ml latanoprost) and XALCOM® (comprising approximately 50 μg/ml latanoprost and 5 mg/ml timolol) are packaged in bottles. The bottle is typically made of clear low-density polyethylene with a clear low-density polyethylene dropper tip, a high-density polyethylene screw cap, and a clear low-density polyethylene overcap. Unopened bottles are stored at 2-8° C.
While storage at recommended temperature has proven to be an effective way of maintaining product stability of the ophthalmic products, it would be desirable to store such ophthalmic products at room temperature for prolonged periods without adversely affecting the concentration(s) of the active ingredient(s).
Following extensive research, a better understanding of the above-mentioned phenomenon has now been achieved. When the polyethylene packages are stored, moisture from the composition is lost to the atmosphere. Moreover, prostaglandin itself is absorbed into or adsorbed to the bottle resin and thus removed from the composition. […] Thus, the concentration of timolol increases over time and may have undesired systemic effects upon administration to the eye. This net effect of this phenomenon is more pronounced at room temperature than at low temperature.

`CC(C)OC(=O)CCC/C=C\C[C@@H]1[C@@H](CC[C@@H](O)CCc2ccccc2)[C@H](O)C[C@@H]1O` [latanoprost]: the “concentration upon storage at low temperature” value is given as “maintained at a nearly constant level” and the “concentration upon storage at room temperature” value is listed as “maintained at a nearly constant level”.
Regarding `CC(C)(C)NC[C@H](O)COc1nsnc1N1CCOCC1` [timolol, (S)-1-[(1,1-dimethylethyl)amino]-3-[ [4-(4-morpholinyl)-1,2,5-thiadiazol-3-yl]oxy]-2-propanol], the “concentration upon storage at low temperature” value is reported as “maintained at a nearly constant level” and the “concentration upon storage at room temperature” value is on record as “increases gradually over time”. The “loss to the atmosphere or absorption/adsorption by the package material” value (polyethylene packages on storage) is “neither lost to the atmosphere nor absorbed/adsorbed by the package material to any large extent”.

(Values after US20050048122A1, “Method for stabalizing timolol concentration” (Pharmacia & Upjohn Company, priority 2003, published 2005).)
